According to US20200223889A1, “Bicyclic Compounds Capable of Binding to Melanocortin 4 Receptor” (Novo Nordisk A/S, priority 2017, published 2020):
Positions of bridges follow the written chain, without caps; N, C: chain ends. Non-standard residues stand in square brackets, D forms with d. Residues, ends and D or L forms follow the SMILES beside them. Thz = O=C(O)[C@@H]1CSCN1

Tests used:
[1] = biological target: T1, human MC4R (Homo sapiens, UniProt P32245); experiment: 125NDP-α-MSH competitive binding to membranes of BHK cells expressing human MC4 receptor (filtration assay)
T1 construct: expressed in transfected cells
How it was run: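 Displacement of ^125NDP-α-MSH (apx. […] final) was measured by filtration after 2 h at 25 °C, using diluted membranes of stably transfected BHK cells in pH 7.0 HEPES buffer. Compounds spanned 1 μM to 0.001 nM; binding curves were analysed by non-linear regression.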

[2] = biological target: T1, human MC4R; experiment: Functional cAMP assay (CisBio HTRF) in BHK cells expressing human MC4R; type: cell-based; conditions: for MC1R/MC4R cAMP EC50 ratio: MC1R cAMP EC50 divided by MC4R cAMP EC50
How it was run: (§1)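 Stably transfected BHK cells expressing human MC1R or MC4R; cAMP quantified by HTRF (cAMP-d2/cryptate) after 30 min compound stimulation at 25 °C in DMEM-based buffer with 1 mM IBMX. Compounds were prepared as 10-fold serial dilutions starting at 2 μM (working solution, 2× final). Readout after 1 h at 25 °C; non-linear regression.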

[3] = In vivo acute food intake model (BioDAQ) in C57BL/6J male mice; conditions: single subcutaneous dose 1 mg/kg, cumulative food intake
Experimental: The MC4R system is central to appetite regulation and agonists are known inhibit food intake. In order to screen compounds in a relevant in vivo model, efficacy was assessed by determining the effect of the compound on reducing food intake acutely in mice.
All animal protocols were approved by an Institutional Animal Care and Use Committee and Ethical Review Committee of Novo Nordisk. Animals were housed according to Novo Nordisk rodent housing standards, and were given ad libitum access to food and water under controlled lighting (12 h:12 h light/dark cycle; lights off 11:00-23:00), temperature (23±2° C.) and relative humidity (50±20%) conditions. For each acute food intake study C57BL/6J male mice (25-30 grams body weight) were acclimated for two weeks to the appropriate light cycle and to single-housing (one mouse per cage) in cages linked to a BioDAQ automated food intake system (Research Diets Inc., New Brunswick, N.J. USA). The animals were also acclimated to new food (Research Diets 12450B, 10% kcal fat) during this time.
The BioDAQ is a computer automated scientific instrument for Biological Data Acquisition of food intake in rodents and measures food intake from each cage every 15 minutes. A total of 32 animals can be accommodated in the system per study, therefore, animals were randomized into 4 groups of n=8 for each study. […] Animals were fasted ˜4 hr prior to dosing. Vehicle (10 mM phosphate; 140 mM sodium chloride) or compound was dosed at a volume of 10 ml per kg subcutaneously approximately 20 minutes prior to the start of the dark cycle (compound chem no. and dosages are indicated in table 2 below). After dosing, food intake was recorded for approximately 24 hours.
The inhibitory effect of compounds on food intake was generally well-correlated with in vitro binding affinity on the human MC4 receptor and with plasma stability of the compound. Most studies were conducted as dose response studies with vehicle and the compound at 3 doses (0.3, 1 and 3 mg/kg). Some studies were done for the purpose of dose-range finding, while others were done to comparatively assess the effect of 3 compounds at the same dose. Maximal effects on food intake occurred within the first 1-5 hours post-dose. The comparative effect of compounds across studies on food intake was assessed by normalizing measurements as % effect on cumulative food intake after a single subcutaneous dose, relative to vehicle. Results are reported in Table 2 as % effect on food intake at 3 hours post dose.

[4] = biological target: T2, human MC1R (Homo sapiens, UniProt Q01726); experiment: Functional cAMP assay (CisBio HTRF) in BHK cells expressing human MC1R; type: cell-based
T2 construct: expressed in transfected cells
How it was run: as §1

T1 sequence (P32245 whole entry): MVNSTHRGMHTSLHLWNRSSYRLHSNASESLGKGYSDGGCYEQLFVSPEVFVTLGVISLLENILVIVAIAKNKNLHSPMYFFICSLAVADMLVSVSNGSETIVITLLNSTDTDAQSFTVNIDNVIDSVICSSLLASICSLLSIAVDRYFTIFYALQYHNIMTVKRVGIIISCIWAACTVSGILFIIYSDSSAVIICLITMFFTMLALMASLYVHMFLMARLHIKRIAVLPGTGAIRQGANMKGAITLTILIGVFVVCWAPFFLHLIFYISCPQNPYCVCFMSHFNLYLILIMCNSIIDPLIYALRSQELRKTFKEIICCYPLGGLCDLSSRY
T2 sequence (Q01726 whole entry): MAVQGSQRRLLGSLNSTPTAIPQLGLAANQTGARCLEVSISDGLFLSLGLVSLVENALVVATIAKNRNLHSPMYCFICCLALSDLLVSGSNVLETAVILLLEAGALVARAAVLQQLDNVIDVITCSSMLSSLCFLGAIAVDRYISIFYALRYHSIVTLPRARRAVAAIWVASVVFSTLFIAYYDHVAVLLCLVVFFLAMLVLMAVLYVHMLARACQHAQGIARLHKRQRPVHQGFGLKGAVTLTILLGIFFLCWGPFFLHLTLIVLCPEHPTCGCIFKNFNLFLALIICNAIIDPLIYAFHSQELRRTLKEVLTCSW

SMILES | Ki [1] [nM] | EC50 [2] [nM] | MC1R/MC4R cAMP EC50 ratio [2] | % Effect on food intake at 3 hours post dose, relative to vehicle [3] [%] | EC50 [4] [nM]
C[C@@H]1NC(=O)[C@H](CCCCN)NC(=O)[C@H](CCCCN)NC(=O)[C@H](C)NC(=O)[C@@H]2CSSC[C@H](NC(=O)[C@H](Cc3c[nH]c4ccccc34)NC1=O)C(=O)N1CSC[C@H]1C(=O)N[C@@H](Cc1c[nH]cn1)C(=O)N[C@H](Cc1ccccc1)C(=O)N[C@@H](Cc1c[nH]cn1)C(=O)N[C@@H](Cc1c[nH]c3ccccc13)C(=O)N2 [Chem. 110, c[c[Cys-THAZ-His-D-Phe-His-Trp- Cys]-Ala-Lys-Lys-Ala-Trp]] (cyclo(AKKAWC[Thz]H[dF]HWC); disulfide 6-12) | 0.09 | 0.05 | 1266 | −26 ± 15 | –
C[C@@H]1NC(=O)[C@@H]2CSSC[C@H](NC(=O)[C@H](Cc3c[nH]c4ccccc34)NC(=O)[C@H](CCCNC(=N)N)NC(=O)[C@@H](Cc3ccccc3)NC(=O)[C@H](Cc3c[nH]cn3)NC1=O)C(=O)N[C@@H](C)C(=O)N[C@@H](Cc1c[nH]cn1)C(=O)N[C@H](Cc1ccccc1)C(=O)N[C@@H](CCCNC(=N)N)C(=O)N[C@@H](Cc1c[nH]c3ccccc13)C(=O)N2 [Chem. 111, c[c[Cys-Ala-His-D-Phe-Arg-Trp-Cys]- Ala-His-D-Phe-Arg-Trp]] | 0.04 | 0.01 | 31 | −63 ± 4 | 0.31
